This note sets out measurements from paper PMC12155888, “Design, Synthesis, and Antitumor Biological Evaluation of Galaxamide and Its Analogs” (Molecules, 2025).

Several values for one entry are separate records, joined by “and”; a condition that tells them apart may be missing. Equal entries are not always repeated. Where two headings read alike, the source gives them in different places. Where a SMILES comes first, the peptide text is derived from it. [ ]: non-standard residue; d: D form. dChg = N[C@@H](C(=O)O)C1CCCCC1; dPhg = N[C@@H](C(=O)O)c1ccccc1; NMeL = CN[C@@H](CC(C)C)C(=O)O; dNMeL = CN[C@H](CC(C)C)C(=O)O

Assay type in all cases: cell-based, human
The subject of one assay is 293T. Particulars: 48 h. The source says: (§1) Since the antitumor activity of natural galaxamide is good, we are interested in the antitumor potential of the obtained new analogs. To examine the anticancer activities of galaxamide and its analogs, two different human cancer cell lines, human non-small-cell lung cancer cells (A549) and human chronic myelogenous leukemia (K562), and one normal human cell line, human immortal embryonic kidney cells (293T), were selected for the in vitro cell models. […] The synthetic galaxamide (Gala01) was also tested as the standard. […] It was also found […] the best selectivity and highest safety and is thus worthy of further development for anticancer drugs for K562. A549, K562, and 293T cells were purchased from the Cell Resource Center of the Institute of Basic Medicine, Chinese Academy of Medical Sciences. Both A549 cells and K562 cells were cultured in RPMI (full name: Roswell Park Memorial Institute) 1640 medium containing 10% FBS (full name: fetal bovine serum, product number: C04001-500, Vivacell, Shanghai, China) and 1% p/s (full name: penicillin-streptomycin, product number: 15140122, Gbico, Waltham, MA, USA) for culture. The 293T cells were all cultured in DMEM (full name: Dulbecco's Modified Eagle Medium; cat. no.: C3113-0500, Vivacell, ShanghaiChina; containing 10% FBS and 1% p/s) for cultivation. […] Multiple types of cells were seeded into 96-well plates and treated with different concentrations of […]26 for 48 h after they returned to normal. Then, the relative activity of the cells was detected according to the instructions of the CCK-8 kit (item number: MA0218, Meilunbio, Dalian, China) and analyzed and calculated using GraphPad Prism 8.0.1 software.

A further assay relates to K562. The method, then:
To examine the anticancer activities of galaxamide and its analogs, two different human cancer cell lines, human non-small-cell lung cancer cells (A549) and human chronic myelogenous leukemia (K562), and one normal human cell line, human immortal embryonic kidney cells (293T), were selected for the in vitro cell models. […] The synthetic galaxamide (Gala01) was also tested as the standard. […] A549, K562, and 293T cells were purchased from the Cell Resource Center of the Institute of Basic Medicine, Chinese Academy of Medical Sciences. Both A549 cells and K562 cells were cultured in RPMI (full name: Roswell Park Memorial Institute) 1640 medium containing 10% FBS (full name: fetal bovine serum, product number: C04001-500, Vivacell, Shanghai, China) and 1% p/s (full name: penicillin-streptomycin, product number: 15140122, Gbico, Waltham, MA, USA) for culture. The 293T cells were all cultured in DMEM (full name: Dulbecco's Modified Eagle Medium; cat. no.: C3113-0500, Vivacell, ShanghaiChina; containing 10% FBS and 1% p/s) for cultivation. […] Multiple types of cells were seeded into 96-well plates and treated with different concentrations of […]26 for 48 h after they returned to normal. Then, the relative activity of the cells was detected according to the instructions of the CCK-8 kit (item number: MA0218, Meilunbio, Dalian, China) and analyzed and calculated using GraphPad Prism 8.0.1 software.

For the next assay, the system named is A549.
Description: as §1

The mark [1] stands for this setting: human non-small-cell lung cancer cells A549, 48 h, CCK-8, unit given in the text, not in Table 2, read-out: IC50 A549.
[2] abbreviates: human chronic myelogenous leukemia K562, 48 h, CCK-8, unit given in the text, not in Table 2, read-out: IC50 K562.
Where [3] appears, read: normal human embryonic kidney cells 293T, CCK-8, NA = not determined due to low inhibitory activity, read-out: IC50 293T.

With `CC(C)C[C@@H]1NC(=O)[C@H](CC(C)C)N(C)C(=O)[C@H](CC(C)C)NC(=O)[C@H](CC(C)C)N(C)C(=O)[C@@H](Cc2ccc(Br)cc2)NC1=O` [Gala18, Cyclo(Me-L-Leu-L-Leu-4-Bro-D-Phe-Me-L-Leu-L-Leu)], the results for the IC50 with 293T and with K562 (48 h) were 14.1 µM and 24.2 µM, respectively.

As for `COC[C@H]1NC(=O)[C@H](CC(C)C)NC(=O)[C@H](CC(C)C)N(C)C(=O)[C@H](CC(C)C)NC(=O)[C@H](CC(C)C)N(C)C1=O` [Gala12, Cyclo(Me-L-Leu-L-Leu-O-Me-D-Ser-Me-L-Leu-L-Leu)] (cyclo(L[NMeL]L[dS](Me)[NMeL])), the figures for the IC50 in the assay on 293T and in the assay on K562 (48 h) were 14.1 µM and 61.8 µM, respectively.

As to `CC(C)C[C@@H]1NC(=O)[C@H](CC(C)C)N(C)C(=O)[C@H](CC(C)C)NC(=O)[C@H](CC(C)C)N(C)C(=O)[C@@H](C)NC1=O` [Gala11, Cyclo(Me-L-Leu-L-Leu-D-Ala-Me-L-Leu-L-Leu)] (cyclo([NMeL]L[dA][NMeL]L)), the IC50 was 13.3 µM in the assay with 293T and 33.8 µM in the assay on K562 (48 h).

`CC(C)C[C@@H]1NC(=O)[C@H](CC(C)C)N(C)C(=O)[C@H](CC(C)C)NC(=O)[C@H](CC(C)C)N(C)C(=O)[C@@H](C2CCCCC2)NC1=O` [Gala19, Cyclo(Me-L-Leu-L-Leu-D-cyclohexyl-Gly-Me-L-Leu-L-Leu)] (cyclo(L[NMeL]L[dChg][NMeL])): the IC50 with A549 (48 h) was above 20 µM; with K562 (48 h) it was 75.2 µM.

In the case of `CC(C)C[C@@H]1NC(=O)[C@@H](CC(C)C)N(C)C(=O)[C@H](CC(C)C)NC(=O)[C@@H](CC(C)C)N(C)C(=O)[C@H](CC(C)C)NC1=O` [Gala03, Cyclo(Me-D-Leu-L-Leu-L-Leu-Me-D-Leu-L-Leu)] (cyclo(LL[dNMeL]L[dNMeL])), the IC50 in the assay on A549 (setting [1]) is above 20 µM; in the assay with K562 (setting [2]) it was above 80 µM.

Consider `CC(C)C[C@@H]1NC(=O)[C@H](CC(C)C)N(C)C(=O)[C@H](CC(C)C)NC(=O)[C@H](CC(C)C)N(C)C(=O)[C@@H](Cc2ccccc2)NC1=O` [Gala09, Cyclo(Me-L-Leu-L-Leu-D-Phe-Me-L-Leu-L-Leu)], for which the figures for the half-maximal inhibitory concentration (IC50) with A549 (48 h) and in the assay with K562 (48 h) were above 20 µM and 14.9 µM, respectively.

Consider (−)-β-elemene [reference compound], for which the 50% inhibitory concentration (IC50) in the assay on 293T (setting [3]), in the assay on A549 (setting [1]) and in the assay on K562 (setting [2]) was above 100 µM each time.

As to `CC(C)C[C@@H]1NC(=O)[C@@H](CC(C)C)NC(=O)[C@@H](CC(C)C)N(C)C(=O)[C@@H](CC(C)C)NC(=O)[C@@H](CC(C)C)N(C)C1=O` [Gala07, Cyclo(Me-D-Leu-D-Leu-L-Leu-Me-D-Leu-D-Leu)] (cyclo(L[dNMeL][dL][dNMeL][dL])), the IC50 with A549 (setting [1]) was above 20 µM; in the assay with K562 (setting [2]) it was above 80 µM.

`CC(C)C[C@@H]1NC(=O)[C@H](CC(C)C)N(C)C(=O)[C@H](CC(C)C)NC(=O)[C@H](CC(C)C)N(C)C(=O)[C@@H](Cc2cccc(F)c2)NC1=O` [Gala15, Cyclo(Me-L-Leu-L-Leu-3-Flu-D-Phe-Me-L-Leu-L-Leu)]: the figures for the IC50 with A549 (48 h) and with K562 (48 h) were above 20 µM and 13 µM, respectively.

Regarding `CSCC[C@H]1NC(=O)[C@H](CC(C)C)NC(=O)[C@H](CC(C)C)N(C)C(=O)[C@H](CC(C)C)NC(=O)[C@H](CC(C)C)N(C)C1=O` [Gala22, Cyclo(Me-L-Leu-L-Leu-D-Met-Me-L-Leu-L-Leu)] (cyclo(L[NMeL]L[dM][NMeL])), the IC50 with 293T was 12.9 µM; in the assay on K562 (48 h), 8.5 µM.

Take `CC(C)C[C@@H]1NC(=O)[C@H](CC(C)C)N(C)C(=O)[C@H](CC(C)C)NC(=O)[C@H](CC(C)C)N(C)C(=O)CNC1=O` [Gala10, Cyclo(Me-L-Leu-L-Leu-Gly-Me-L-Leu-L-Leu)] (cyclo([NMeL]LG[NMeL]L)): the values for the IC50 with A549 (48 h) and in the assay on K562 (48 h) were above 20 µM and 27.2 µM, respectively.

Consider `COC(=O)C[C@H]1NC(=O)[C@H](CC(C)C)NC(=O)[C@H](CC(C)C)N(C)C(=O)[C@H](CC(C)C)NC(=O)[C@H](CC(C)C)N(C)C1=O` [Gala14, Cyclo(Me-L-Leu-L-Leu-Methylester-D-Asp-Me-L-Leu-L-Leu)] (cyclo(L[NMeL]L[dD](OMe)[NMeL])), for which the IC50 with 293T was found to be 22.2 µM; in the assay on A549 (48 h) it was 20 µM; in the assay with K562 (48 h), 29.6 µM.

On to `Cc1cccc(C[C@H]2NC(=O)[C@H](CC(C)C)NC(=O)[C@H](CC(C)C)N(C)C(=O)[C@H](CC(C)C)NC(=O)[C@H](CC(C)C)N(C)C2=O)c1` [Gala23, Cyclo(Me-L-Leu-L-Leu-3-Me-D-Phe-Me-L-Leu-L-Leu)], for which the figures for the IC50 in the assay with A549 (48 h) and with K562 (48 h) were above 20 µM and 6.9 µM, respectively.

`CC(C)C[C@H]1NC(=O)[C@H](CC(C)C)N(C)C(=O)[C@@H](CC(C)C)NC(=O)[C@H](CC(C)C)N(C)C(=O)[C@@H](CC(C)C)NC1=O` [Gala06, Cyclo(Me-L-Leu-D-Leu-D-Leu-Me-L-Leu-D-Leu)] (cyclo([NMeL][dL][NMeL][dL][dL])): the IC50 in the assay on A549 (setting [1]) was above 20 µM; in the assay on K562 (setting [2]), 28.8 µM.

On to `Cc1ccccc1C[C@H]1NC(=O)[C@H](CC(C)C)NC(=O)[C@H](CC(C)C)N(C)C(=O)[C@H](CC(C)C)NC(=O)[C@H](CC(C)C)N(C)C1=O` [Gala16, Cyclo(Me-L-Leu-L-Leu-2-Me-D-Phe-Me-L-Leu-L-Leu)], for which the IC50 with A549 (48 h) was above 20 µM; in the assay with K562 (48 h) it was above 80 µM.

`CC(C)C[C@@H]1NC(=O)[C@H](CC(C)C)N(C)C(=O)[C@H](CC(C)C)NC(=O)[C@H](CC(C)C)N(C)C(=O)[C@@H](Cc2ccc(Cl)cc2)NC1=O` [Gala17, Cyclo(Me-L-Leu-L-Leu-4-Chl-D-Phe-Me-L-Leu-L-Leu)]: the IC50 with A549 (48 h) was above 20 µM; in the assay with K562 (48 h), 77.7 µM.

`CC(C)C[C@@H]1NC(=O)[C@@H](CC(C)C)NC(=O)[C@H](CC(C)C)N(C)C(=O)[C@@H](CC(C)C)NC(=O)[C@H](CC(C)C)N(C)C1=O` [Gala05, Cyclo(Me-L-Leu-D-Leu-L-Leu-Me-L-Leu-D-Leu)] (cyclo(L[NMeL][dL][NMeL][dL])): the IC50 in the assay with A549 (setting [1]) was above 20 µM; with K562 (setting [2]), 10.2 µM.

In the case of `COc1ccc(C[C@H]2NC(=O)[C@H](CC(C)C)NC(=O)[C@H](CC(C)C)N(C)C(=O)[C@H](CC(C)C)NC(=O)[C@H](CC(C)C)N(C)C2=O)cc1` [Gala13, Cyclo(Me-L-Leu-L-Leu-O-Tyr-Me-L-Leu-L-Leu)] (cyclo(L[NMeL]L[dY](Me)[NMeL])), the IC50 is above 20 µM in the assay on A549 (48 h) and above 80 µM with K562 (48 h).

Take `CC(C)C[C@@H]1NC(=O)[C@H](CC(C)C)N(C)C(=O)[C@H](CC(C)C)NC(=O)[C@H](CC(C)C)N(C)C(=O)[C@@H](c2ccccc2)NC1=O` [Gala20, Cyclo(Me-L-Leu-L-Leu-D-phenyl-Gly-Me-L-Leu-L-Leu)] (cyclo(L[NMeL]L[dPhg][NMeL])): the IC50 in the assay on A549 (48 h) is above 20 µM; with K562 (48 h) it was above 80 µM.

`CC(C)C[C@@H]1NC(=O)[C@H](CC(C)C)N(C)C(=O)[C@H](CC(C)C)NC(=O)[C@H](CC(C)C)N(C)C(=O)[C@@H](C(C)C)NC1=O` [Gala21, Cyclo(Me-L-Leu-L-Leu-D-Val-Me-L-Leu-L-Leu)] (cyclo([NMeL]L[dV][NMeL]L)): the IC50 in the assay with A549 (48 h) was above 20 µM; in the assay with K562 (48 h) it was 49.3 µM.

In the case of `CC(C)C[C@@H]1NC(=O)[C@H](CC(C)C)N(C)C(=O)[C@H](CC(C)C)NC(=O)[C@H](CC(C)C)N(C)C(=O)[C@@H](CC(C)C)NC1=O` [Gala02, Cyclo(Me-L-Leu-L-Leu-D-Leu-Me-L-Leu-L-Leu)] (cyclo(L[NMeL]L[dL][NMeL])), the results for the IC50 with A549 (setting [1]) and in the assay with K562 (setting [2]) were above 20 µM and 8.6 µM, respectively.

`CC(C)C[C@@H]1NC(=O)[C@@H](CC(C)C)N(C)C(=O)[C@H](CC(C)C)NC(=O)[C@@H](CC(C)C)N(C)C(=O)[C@@H](CC(C)C)NC1=O` [Gala04, Cyclo(Me-D-Leu-L-Leu-D-Leu-Me-D-Leu-L-Leu)] (cyclo(L[dL][dNMeL]L[dNMeL])): the half-maximal inhibitory concentration (IC50) in the assay with 293T (setting [3]) was 16.3 µM; in the assay on A549 (setting [1]) it was 19 µM; with K562 (setting [2]), 4.19 µM and 4.2 µM.

By IC50 is commonly meant the concentration that inhibits the measured activity by half.
